The text below walks through data of PMC5992992, “Functional Consequences of the Postnatal Switch From Neonatal to Mutant Adult Glycine Receptor α1 Subunits in the Shaky Mouse Model of Startle Disease” (Frontiers in Molecular Neuroscience, 2018).

Experiment [1] deals with T1, glycine receptor α1 subunit (GlyR α1) (Mus musculus, UniProt Q64018).
T1 construct: gene Glra1; native GlyRs in hypoglossal motoneurons of brain stem slices (Glra1+/+, P18-24); with GlyR β subunit (Glrb)
Put plainly: whole-cell patch-clamp dose-response of bath-applied glycine in brain stem slices. (In general: Patch clamp records ionic current or voltage across a cell membrane.)

The target in experiment [2] is T2, glycine receptor α1 subunit (GlyR α1 Q177K, shaky) (Mus musculus, UniProt Q64018, Q205K).
T2 construct: gene Glra1; native GlyRs in hypoglossal motoneurons of brain stem slices (Glra1sh/sh, P18-24); with GlyR β subunit (Glrb)
Described as above.

The EC50 is the concentration needed to bring the measured effect to its halfway point. A high value points to a need for much substance. Turning to `NCC(=O)O` [glycine], the EC50 in experiment [1] came to 277 µM; in experiment [2] it was 384 µM.
